According to patent US20250276983A1, “COMPOUNDS AND METHODS FOR MODULATING HER2” (IAMBIC THERAPEUTICS, INC., priority 2022, published 2025):
Where two headings read alike, the source gives them in different places.

Key:
Assay type in all cases: cell-based
[1] = system: BaF3_HER2WT cells; assay: Cell growth inhibition assay, BaF3_HER2WT; settings: 3 days treatment, CellTiterGlo 2.0, read-out: HER2 WT IC50 (nM), cell growth inhibition
[2] = system: BaF3_EGFRWT cells; assay: Cell growth inhibition assay, BaF3_EGFRWT; settings: 80 ng/mL recombinant human EGF, 3 days treatment, CellTiterGlo 2.0, read-out: EGFR WT IC50 (nM), cell growth inhibition
[3] = system: BaF3_HER2YVMA cells; assay: Cell growth inhibition assay, BaF3_HER2YVMA; settings: BaF3_HER2YVMA cells, 3 days treatment, CellTiterGlo 2.0, read-out: HER2-YVMA IC50 (nM), cell growth inhibition

Structure (SMILES) | IC50 ([1]; 72 h) [nM] | IC50 ([2]; 72 h) [nM] | IC50 ([3]; 72 h) [nM] | IC50 [1] [nM] | IC50 [2] [nM] | IC50 [3] [nM]
Cc1cc(Nc2ncnn3ccc(C4CCN(C(=O)/C=C/CO)CC4)c23)ccc1Oc1ccn2ncnc2c1 [Example 154, (E)-1-(4-(4-((4-([1,2,4]triazolo[1,5-a]pyridin-7-yloxy)-3-methylphenyl)amino)pyrrolo[2,1-f][1,2,4]triazin-5-yl)piperidin-1-yl)-4-hydroxybut-2-en-1-one] | < 200 | 1500 to 5000 | < 200 | – | – | –
Cc1cc(Nc2ncnn3ccc(C(=O)NCCCN(C)C)c23)ccc1N [Example 181, 4-((4-amino-3-methylphenyl)amino)-N-(3-(dimethylamino)propyl)pyrrolo[2,1-f][1,2,4]triazine-5-carboxamide] | 1500 to 5000 | > 5000 | > 5000 | – | – | –
Cc1cc(Nc2ncnn3ccc(C4CCCN(C(=O)C(F)Cl)CC4)c23)ccc1Oc1ccn2ncnc2c1 (single isomer, unassigned) [Examples 145, 146, 147 and 148, third eluting isomer, 1-(4-(4-((4-([1,2,4]triazolo[1,5-a]pyridin-7-yloxy)-3-methylphenyl)amino)pyrrolo[2,1-f][1,2,4]triazin-5-yl)azepan-1-yl)-2-chloro-2-fluoroethan-1-one] | – | – | – | 200 to 500 | 1500 to 5000 | 500 to 1500
C=C(CN(C)C)C(=O)N1CC(c2ccn3ncnc(Nc4ccc(Oc5ccc6c(c5)ncn6C)c(C)c4)c23)C1 [Example 67, 2-((dimethylamino)methyl)-1-(3-(4-((3-methyl-4-((1-methyl-1H-benzo[d]imidazol-5-yl)oxy)phenyl)amino)pyrrolo[2,1-f][1,2,4]triazin-5-yl)azetidin-1-yl)prop-2-en-1-one] | < 200 | 500 to 1500 | < 200 | – | – | –
Cc1cc(Nc2ncnn3ccc(C4CN(C(=O)/C=C/CN(C)C)C4)c23)ccc1Oc1ccn2ccnc2c1 [Example 157, (E)-4-(dimethylamino)-1-(3-(4-((4-(imidazo[1,2-a]pyridin-7-yloxy)-3-methylphenyl)amino)pyrrolo [2,1-f][1,2,4]triazin-5-yl)azetidin-1-yl)but-2-en-1-one] | < 200 | 1500 to 5000 | < 200 | – | – | –
C=C(CN(C)C)C(=O)N1C2CCC1CC(c1ccn3ncnc(Nc4ccc(Oc5ccn6ncnc6c5)c(C)c4)c13)C2 (single isomer, unassigned) [Examples 126 and 127, second eluting isomer, 1-(3-(4-((4-([1,2,4]triazolo[1,5-a]pyridin-7-yloxy)-3-methylphenyl)amino)pyrrolo[2,1-f][1,2,4]triazin-5-yl)-8-azabicyclo[3.2.1]octan-8-yl)-2-((dimethylamino)methyl)prop-2-en-1-one] | – | – | – | < 200 | 1500 to 5000 | 500 to 1500
Cc1cc(Nc2ncnn3ccc(N4CCCC(N(C)C(=O)/C=C/CN(C)C)C4)c23)ccc1Oc1ccn2ncnc2c1 (stereo not drawn) [Example 68, (E)-N-(1-(4-((4-([1,2,4]triazolo[1,5-a]pyridin-7-yloxy)-3-methylphenyl)amino)pyrrolo[2,1-f][1,2,4]triazin-5-yl)piperidin-3-yl)-4-(dimethylamino)-N-methylbut-2-enamide] | < 200 | 1500 to 5000 | < 200 | – | – | –
C=C(CN(C)C)C(=O)N1C2CCC1CN(c1ccn3ncnc(Nc4ccc(Oc5ccn6ncnc6c5)c(C)c4)c13)C2 [Example 48, 1-(3-(4-((4-([1,2,4]triazolo[1,5-a]pyridin-7-yloxy)-3-methylphenyl)amino)pyrrolo[2,1-f][1,2,4]triazin-5-yl)-3,8-diazabicyclo[3.2.1]octan-8-yl)-2-((dimethylamino)methyl)prop-2-en-1-one] | 200 to 500 | 1500 to 5000 | 1500 to 5000 | – | – | –
Cc1cc(Nc2ncnn3ccc(C4CCN(C(=O)/C=C/CN5CCC6(COC6)C5)CC4)c23)ccc1Oc1ccn2ncnc2c1 [Example 120, E-1-(4-(4-((4-([1,2,4]triazolo[1,5-a]-208-midazol-7-yloxy)-3-methylphenyl)amino)pyrrolo[2,1-f][1,2,4]triazin-5-yl)piperidin-1-yl)-4-(2-oxa-6-azaspiro[3.4]octan-6-yl)but-2-en-1-one] | < 200 | 1500 to 5000 | < 200 | – | – | –
C=CC(=O)N1C2CCC1CN(c1ccn3ncnc(Nc4ccc(Oc5ccn6ncnc6c5)c(C)c4)c13)C2 [Example 46, 1-(3-(4-((4-([1,2,4]triazolo[1,5-a]pyridin-7-yloxy)-3-methylphenyl)amino)pyrrolo[2,1-f][1,2,4]triazin-5-yl)-3,8-diazabicyclo[3.2.1]octan-8-yl)prop-2-en-1-one] | < 200 | 200 to 500 | < 200 | – | – | –
C=CC(=O)NC1CCN(c2ccn3ncnc(Nc4ccc(Oc5ccn6ncnc6c5)c(C)c4)c23)CC1 [Example 78, N-(1-(4-((4-([1,2,4]triazolo[1,5-a]pyridin-7-yloxy)-3-methylphenyl)amino)pyrrolo[2,1-f][1,2,4]triazin-5-yl)piperidin-4-yl)acrylamide] | < 200 | 1500 to 5000 | 200 to 500 | – | – | –
C=CC(=O)NC1CCN(c2ccn3ncnc(Nc4ccc(Oc5ccn6ncnc6c5)c(C)c4)c23)C1 (stereo not drawn) [Example 79, N-(1-(4-((4-([1,2,4]triazolo[1,5-a]pyridin-7-yloxy)-3-methylphenyl)amino)pyrrolo[2,1-f][1,2,4]triazin-5-yl)pyrrolidin-3-yl)acrylamide] | < 200 | 1500 to 5000 | 200 to 500 | – | – | –
Cc1cc(Nc2ncnn3ccc(C4CCCN(C(=O)C(F)Cl)CC4)c23)ccc1Oc1ccn2ncnc2c1 (single isomer, unassigned) [Examples 145, 146, 147 and 148, first eluting isomer, 1-(4-(4-((4-([1,2,4]triazolo[1,5-a]pyridin-7-yloxy)-3-methylphenyl)amino)pyrrolo[2,1-f][1,2,4]triazin-5-yl)azepan-1-yl)-2-chloro-2-fluoroethan-1-one] | < 200 | – | – | – | 1500 to 5000 | 200 to 500
Cc1cc(Nc2ncnn3ccc(C4CCN(C(=O)C5CC(=O)N5)CC4)c23)ccc1Oc1ccn2ncnc2c1 (stereo not drawn) [Example 36, 4-(4-(4-((4-([1,2,4]triazolo[1,5-a]pyridin-7-yloxy)-3-methylphenyl)amino)pyrrolo[2,1-f][1,2,4]triazin-5-yl)piperidine-1-carbonyl)azetidin-2-one acetate] | 1500 to 5000 | 1500 to 5000 | 1500 to 5000 | – | – | –
C=C(C(=O)O)C(=O)N1CCC(c2ccn3ncnc(Nc4ccc(Oc5ccn6ncnc6c5)c(C)c4)c23)CC1 [Example 20, 2-(4-(4-((4-([1,2,4]triazolo[1,5-a]pyridin-7-yloxy)-3-methylphenyl)amino)pyrrolo[2,1-f][1,2,4]triazin-5-yl)piperidine-1-carbonyl)acrylic acid] | 1500 to 5000 | 1500 to 5000 | 1500 to 5000 | – | – | –
COC1CCN(C/C=C/C(=O)N2CC(c3ccn4ncnc(Nc5ccc(Oc6ccn7ncnc7c6)c(C)c5)c34)C2)C1 (stereo not drawn) [Example 41, (E)-1-(3-(4-((4-([1,2,4]triazolo[1,5-a]pyridin-7-yloxy)-3-methylphenyl)amino)pyrrolo[2,1-f][1,2,4]triazin-5-yl)azetidin-1-yl)-4-(3-methoxypyrrolidin-1-yl)but-2-en-1-one] | < 200 | 1500 to 5000 | < 200 | – | – | –
